target: T1, SPT (SPT2-expressing membrane fraction: human SPT1, human SPT2 and human ssSPTa) (Homo sapiens, UniProt O15269+O15270); test: SPT enzyme inhibition test (Test Example 1); format: biochemical; conditions: read-out: Rate of inhibition (%) at 1 μM
T1 construct: Full-length human SPT1, human SPT2 and human ssSPTa used; made in house; host or cells: FreeStyle 293 cells (pcDNA3.1 vectors, cotransfection); crude membrane fraction used
T1 sequence (O15269 1-473): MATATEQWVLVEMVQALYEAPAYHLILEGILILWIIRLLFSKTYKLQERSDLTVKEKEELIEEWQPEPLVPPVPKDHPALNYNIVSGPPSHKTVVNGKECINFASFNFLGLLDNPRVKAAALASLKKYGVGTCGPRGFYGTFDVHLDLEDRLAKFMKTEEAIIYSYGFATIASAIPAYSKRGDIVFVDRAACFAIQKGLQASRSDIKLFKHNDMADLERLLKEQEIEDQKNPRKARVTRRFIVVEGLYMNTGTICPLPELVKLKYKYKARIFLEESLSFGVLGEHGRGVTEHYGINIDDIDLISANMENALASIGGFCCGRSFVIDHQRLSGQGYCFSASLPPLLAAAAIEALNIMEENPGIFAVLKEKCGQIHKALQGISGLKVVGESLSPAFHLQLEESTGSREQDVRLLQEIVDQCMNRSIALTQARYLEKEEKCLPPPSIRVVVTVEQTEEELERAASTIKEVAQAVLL
T1 sequence (O15270 1-562): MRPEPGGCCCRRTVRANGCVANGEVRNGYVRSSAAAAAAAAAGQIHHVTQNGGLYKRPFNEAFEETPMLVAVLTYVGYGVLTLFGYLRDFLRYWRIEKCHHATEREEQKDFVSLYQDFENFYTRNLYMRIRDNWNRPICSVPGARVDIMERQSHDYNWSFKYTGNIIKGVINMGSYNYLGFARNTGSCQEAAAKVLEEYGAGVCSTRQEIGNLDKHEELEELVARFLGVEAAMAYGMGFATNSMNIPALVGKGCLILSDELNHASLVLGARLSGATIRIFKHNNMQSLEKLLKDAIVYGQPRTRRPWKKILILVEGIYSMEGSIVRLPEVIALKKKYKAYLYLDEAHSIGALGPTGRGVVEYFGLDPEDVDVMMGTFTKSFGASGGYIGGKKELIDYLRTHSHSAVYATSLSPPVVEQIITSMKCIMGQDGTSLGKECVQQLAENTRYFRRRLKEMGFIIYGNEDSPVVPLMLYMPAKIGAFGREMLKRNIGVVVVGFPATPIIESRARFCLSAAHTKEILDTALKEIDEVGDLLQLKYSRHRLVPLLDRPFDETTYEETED
T1 sequence (Q969W0 1-71 partner): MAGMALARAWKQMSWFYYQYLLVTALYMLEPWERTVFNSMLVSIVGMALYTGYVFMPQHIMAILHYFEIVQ
Procedure: After culture for 3 days, the cells were recovered and frozen at −80° C. to obtain expressing cells. The frozen cells were suspended in a 50 mM Hepes buffer (pH 7.5) containing 250 mM sucrose, 5 mM ethylenediaminetetraacetic acid (EDTA), 5 mM dithiothreitol (DTT) and Complete, EDTA-free (Roche Applied Science, Penzberg, Upper Bavaria, Germany). The cells were disrupted (on ice, 20,000 rpm, 20 sec×2) using POLYTORON (Central Scientific Commerce, Inc.). After centrifugation at 2000 rpm (850×g) for 10 minutes, the supernatant was recovered. Subsequently, the supernatant was centrifuged at 40,000 rpm (186,010×g) for 60 minutes, and the supernatant was discarded. The pellets were suspended in a 50 mM Hepes buffer (pH 7.5) containing 5 mM EDTA, 5 mM DTT and Complete, EDTA-free, passed through a 40-μm cell strainer and stored at −80° C. The resultant was used as a SPT2-expressing membrane fraction. The protein concentration was determined using CBB Protein Assay with bovine serum albumin used as standards.
5 μL of each test compound was mixed with 10 μL of the 100 μg/mL SPT2-expressing membrane fraction using an assay buffer (100 mM Hepes (pH 8.0) containing 2.5 mM EDTA, 5 mM DTT and 0.01% fatty acid-free bovine serum albumin), and the mixture was left standing at room temperature for 60 minutes. Subsequently, 5 μL of a substrate solution containing 2 mM L-serine and 20 μM palmitoyl CoA was added thereto, and an enzyme reaction was carried out in a 384-well plate using 20 μL in total of the reaction system. After reaction at room temperature for 15 minutes, the reaction was terminated by the addition of 20 μL of a 2% aqueous formic acid solution. Subsequently, 40 μL of acetonitrile containing 600 nM C17-sphinganine (Avanti Polar Lipids, Inc., Alabaster, Ala., U.S.) was added thereto as an internal standard. The reaction sample was subjected to on-line solid-layer extraction using RapidFire 300 (Agilent Technologies Inc., Santa Clara, Calif., U.S.). […] Mass chromatograms were obtained using Analyst software (version 1.5.0, AB SCIEX). Their mass chromatogram areas were respectively calculated, and the rate of inhibition (%) by the test compound was calculated using an area ratio (the value of the reaction product was divided by the value of the internal standard).

Going from `COc1ccc(C(=O)N2CC[C@@H](NC(=O)c3ccccc3OC(F)(F)F)[C@@H](N3CCCCC3)C2)cc1OC` (relative stereo) [Example 55B, N-(cis-1′-(3,4-Dimethoxybenzoyl)-1,3′-bipiperidin-4′-yl)-2-(trifluoromethoxy)benzamide] to `COc1cc(C(=O)N2CC[C@@H](NC(=O)c3ccccc3OC(F)(F)F)[C@H](N3CCCCC3)C2)cnc1OC` (relative stereo) [Example 253B, N-(trans-1′-((5,6-Dimethoxypyridin-3-yl)carbonyl)-1,3′-bipiperidin-4′-yl)-2-(trifluoromethoxy)benzamide], the inhibition at 1 µM rises from 95% to 97%.

Going from `COc1ccc(C(=O)N2CC[C@@H](NC(=O)c3ccccc3Cl)[C@H](c3sccc3C)C2)cc1OC` (relative stereo) [Example 270B, 2-chloro-N-(trans-1-(3,4-dimethoxybenzoyl)-3-(3-methyl-2-thienyl)piperidin-4-yl)benzamide] to `COc1ccc(C(=O)N2CCC(NC(=O)c3ccccc3Cl)c3noc(C)c32)cc1OC` (stereo not shown) [Example 17A, 2-Chloro-N-[4-(3,4-dimethoxybenzoyl)-3-methyl-4,5,6,7-tetrahydro[1,2]oxazolo[4,3-b]pyridin-7-yl]benzamide], the inhibition at 1 µM falls from 89% to 84%.

Compared with `COc1cc(C(=O)N2CC[C@@H](NC(=O)c3ccccc3OC(F)(F)F)[C@H](n3cccn3)C2)cnc1OC` (relative stereo) [Example 276B, N-(trans-1-((5,6-dimethoxypyridin-3-yl)carbonyl)-3-(1H-pyrazol-1-yl)piperidin-4-yl)-2-(trifluoromethoxy)benzamide], `COc1cc(C(=O)N2CC[C@@H](NC(=O)c3ccnn3C)[C@@H](c3ccccc3)C2)cnc1OC` [Example 144B, N-((3S,4R)-1-((5,6-dimethoxypyridin-3-yl)carbonyl)-3-phenylpiperidin-4-yl)-1-methyl-1H-pyrazole-5-carboxamide] is higher in inhibition at 1 µM: 82% for the first, 98% for the second.

Going from `COc1ccc(C(=O)N2CCC(NC(=O)c3ccccc3Cl)c3nn(C)cc32)cc1OC` (stereo not shown) [Example 1A, 2-Chloro-N-(4-(3,4-dimethoxybenzoyl)-2-methyl-4,5,6,7-tetrahydro-2H-pyrazolo[4,3-b]pyridin-7-yl)benzamide] to `COc1ccc(C(=O)N2CCC(NC(=O)c3ccccc3Cl)c3nscc32)cc1OC` (stereo not shown) [Example 30A, 2-Chloro-N-[4-(3,4-dimethoxybenzoyl)-4,5,6,7-tetrahydro[1,2]thiazolo[4,3-b]pyridin-7-yl]benzamide], the inhibition at 1 µM rises from 91% to 93%.

Going from `COc1ccc(C(=O)N2CCC(NC(=O)c3sccc3Cl)c3c2cnn3C)cc1OC` (stereo not shown) [Example 64A, 3-chloro-N-(4-(3,4-dimethoxybenzoyl)-1-methyl-4,5,6,7-tetrahydro-1H-pyrazolo[4,3-b]pyridin-7-yl)thiophene-2-carboxamide] to `COc1ccc(C(=O)N2CCC(NC(=O)c3cnccc3C(F)(F)F)c3c2cnn3C)cc1OC` (stereo not shown) [Example 91A, N-(4-(3,4-dimethoxybenzoyl)-1-methyl-4,5,6,7-tetrahydro-1H-pyrazolo[4,3-b]pyridin-7-yl)-4-(trifluoromethyl)nicotinamide], the inhibition at 1 µM rises from 82% to 94%.

First: COc1cc(C(=O)N2CC[C@@H](NC(=O)c3ncccc3C(F)(F)F)[C@@H](c3ccccc3)C2)n(C)n1 [Example 72B, N-((3S,4R)-1-((3-methoxy-1-methyl-1H-pyrazol-5-yl)carbonyl)-3-phenylpiperidin-4-yl)-3-(trifluoromethyl)pyridine-2-carboxamide]
Second: COc1ccc(C(=O)N2CCC(NC(=O)c3cccnc3C(F)(F)F)c3c2cnn3C)cc1OC (stereo not shown) [Example 103A, N-(4-(3,4-dimethoxybenzoyl)-1-methyl-4,5,6,7-tetrahydro-1H-pyrazolo[4,3-b]pyridin-7-yl)-2-(trifluoromethyl)nicotinamide]
The inhibition at 1 µM of the first is lower: 94% for the first, 95% for the second.

`COc1ccc(C(=O)N2CCC(NC(=O)c3ccccc3Cl)c3c(C)nsc32)cc1OC` (stereo not shown) [Example 117A, 2-Chloro-N-(7-(3,4-dimethoxybenzoyl)-3-methyl-4,5,6,7-tetrahydro[1,2]thiazolo[5,4-b]pyridin-4-yl)benzamide] gave an inhibition at 1 µM of 84%.

Source: patent US10189785B2, “Heterocyclic compound” (TAKEDA PHARMACEUTICAL COMPANY LIMITED, priority 2015, dated 2019)
